Experimental data taken from ChEMBL document CHEMBL1137963, “New oligomers of conduritol-F and muco-inositol. Synthesis and biological evaluation as glycosidase inhibitors” (Bioorg Med Chem Lett, 2004).
The source made the active and inactive calls. The rule behind the calls is not given here.

Tests used:
[1] = molecular target: T1, Alpha-galactosidase A (Homo sapiens) (UniProt P06280); assay: Concentration required to inhibit alpha-galactocosidase
T1 sequence (whole entry): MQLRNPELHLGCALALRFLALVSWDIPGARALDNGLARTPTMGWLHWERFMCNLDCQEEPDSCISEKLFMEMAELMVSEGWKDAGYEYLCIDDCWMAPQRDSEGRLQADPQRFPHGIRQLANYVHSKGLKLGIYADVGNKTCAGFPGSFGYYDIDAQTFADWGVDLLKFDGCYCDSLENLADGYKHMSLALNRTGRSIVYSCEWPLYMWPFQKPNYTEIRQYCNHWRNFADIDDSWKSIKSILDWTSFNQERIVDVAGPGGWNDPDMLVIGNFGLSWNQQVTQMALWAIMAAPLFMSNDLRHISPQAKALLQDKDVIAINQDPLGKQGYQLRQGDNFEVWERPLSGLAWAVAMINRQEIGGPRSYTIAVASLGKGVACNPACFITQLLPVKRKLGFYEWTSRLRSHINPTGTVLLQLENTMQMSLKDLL

[2] = molecular target: Beta-glucosidase A (Caldicellulosiruptor saccharolyticus) (UniProt P10482); assay: Concentration required to inhibit beta-glucosidase; IA means inactive
[3] = Concentration required to inhibit alpha-mannosidase; IA means inactive
[4] = molecular target: Maltase-glucoamylase (Homo sapiens) (UniProt O43451); assay: Concentration required to inhibit alpha-glucosidase; IA means inactive
[5] = molecular target: T2, Beta-galactosidase (Homo sapiens) (UniProt P16278); assay: Concentration required to inhibit beta-galactosidase
T2 sequence (whole entry): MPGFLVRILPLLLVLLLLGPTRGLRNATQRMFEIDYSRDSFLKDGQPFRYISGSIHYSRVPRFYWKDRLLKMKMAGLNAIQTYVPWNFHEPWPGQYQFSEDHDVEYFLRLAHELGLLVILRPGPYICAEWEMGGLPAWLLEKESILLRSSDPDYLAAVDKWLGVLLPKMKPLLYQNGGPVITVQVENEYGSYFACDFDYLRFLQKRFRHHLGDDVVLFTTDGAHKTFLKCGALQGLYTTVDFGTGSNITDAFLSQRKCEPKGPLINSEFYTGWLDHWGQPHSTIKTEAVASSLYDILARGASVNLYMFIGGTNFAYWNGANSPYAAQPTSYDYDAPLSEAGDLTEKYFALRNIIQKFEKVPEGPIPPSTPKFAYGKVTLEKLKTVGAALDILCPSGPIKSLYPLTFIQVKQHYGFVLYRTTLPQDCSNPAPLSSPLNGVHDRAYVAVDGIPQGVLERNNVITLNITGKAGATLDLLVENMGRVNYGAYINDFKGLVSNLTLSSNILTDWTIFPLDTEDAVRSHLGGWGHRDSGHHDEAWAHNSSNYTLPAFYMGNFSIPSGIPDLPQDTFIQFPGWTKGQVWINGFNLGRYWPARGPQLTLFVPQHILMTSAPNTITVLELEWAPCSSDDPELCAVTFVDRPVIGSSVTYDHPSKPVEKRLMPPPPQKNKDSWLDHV

[6] = molecular target: T3, Beta-mannosidase (Rattus norvegicus) (UniProt Q4FZV0); assay: Concentration required to inhibit beta-mannosidase
T3 sequence (whole entry): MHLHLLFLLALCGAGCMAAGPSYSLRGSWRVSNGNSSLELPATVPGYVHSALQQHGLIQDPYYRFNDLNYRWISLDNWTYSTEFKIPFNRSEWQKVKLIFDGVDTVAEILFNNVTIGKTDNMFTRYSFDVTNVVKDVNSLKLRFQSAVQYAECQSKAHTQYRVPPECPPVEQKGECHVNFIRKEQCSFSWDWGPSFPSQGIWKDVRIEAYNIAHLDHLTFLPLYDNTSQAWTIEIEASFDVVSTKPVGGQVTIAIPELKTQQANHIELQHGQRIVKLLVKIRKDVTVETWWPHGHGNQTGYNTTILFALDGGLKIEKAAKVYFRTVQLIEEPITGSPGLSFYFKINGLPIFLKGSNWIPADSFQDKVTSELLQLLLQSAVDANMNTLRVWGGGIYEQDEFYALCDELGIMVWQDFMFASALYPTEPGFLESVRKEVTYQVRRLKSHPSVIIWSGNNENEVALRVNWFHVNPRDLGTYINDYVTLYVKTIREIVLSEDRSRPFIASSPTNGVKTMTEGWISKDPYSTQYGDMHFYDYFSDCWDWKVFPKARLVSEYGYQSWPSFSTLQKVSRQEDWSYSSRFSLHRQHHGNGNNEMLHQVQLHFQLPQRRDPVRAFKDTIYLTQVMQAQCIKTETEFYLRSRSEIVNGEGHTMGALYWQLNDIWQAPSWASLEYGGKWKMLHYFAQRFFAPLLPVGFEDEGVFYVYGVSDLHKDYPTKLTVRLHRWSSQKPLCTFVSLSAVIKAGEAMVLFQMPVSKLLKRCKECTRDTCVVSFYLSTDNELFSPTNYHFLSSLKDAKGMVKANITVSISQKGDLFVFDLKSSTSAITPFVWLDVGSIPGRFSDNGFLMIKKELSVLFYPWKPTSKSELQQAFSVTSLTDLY

[7] = molecular target: T1, Alpha-galactosidase A (Homo sapiens); assay: Concentration required to inhibit alpha-galactocosidase; IA means inactive
[8] = molecular target: Maltase-glucoamylase (Homo sapiens) (UniProt O43451); assay: Concentration required to inhibit alpha-glucosidase
[9] = molecular target: T3, Beta-mannosidase (Rattus norvegicus); assay: Concentration required to inhibit beta-mannosidase; IA means inactive
[10] = molecular target: T2, Beta-galactosidase (Homo sapiens); assay: Concentration required to inhibit beta-galactosidase; IA means inactive

Sequence of Maltase-glucoamylase (Homo sapiens) (O43451 whole entry, looked up): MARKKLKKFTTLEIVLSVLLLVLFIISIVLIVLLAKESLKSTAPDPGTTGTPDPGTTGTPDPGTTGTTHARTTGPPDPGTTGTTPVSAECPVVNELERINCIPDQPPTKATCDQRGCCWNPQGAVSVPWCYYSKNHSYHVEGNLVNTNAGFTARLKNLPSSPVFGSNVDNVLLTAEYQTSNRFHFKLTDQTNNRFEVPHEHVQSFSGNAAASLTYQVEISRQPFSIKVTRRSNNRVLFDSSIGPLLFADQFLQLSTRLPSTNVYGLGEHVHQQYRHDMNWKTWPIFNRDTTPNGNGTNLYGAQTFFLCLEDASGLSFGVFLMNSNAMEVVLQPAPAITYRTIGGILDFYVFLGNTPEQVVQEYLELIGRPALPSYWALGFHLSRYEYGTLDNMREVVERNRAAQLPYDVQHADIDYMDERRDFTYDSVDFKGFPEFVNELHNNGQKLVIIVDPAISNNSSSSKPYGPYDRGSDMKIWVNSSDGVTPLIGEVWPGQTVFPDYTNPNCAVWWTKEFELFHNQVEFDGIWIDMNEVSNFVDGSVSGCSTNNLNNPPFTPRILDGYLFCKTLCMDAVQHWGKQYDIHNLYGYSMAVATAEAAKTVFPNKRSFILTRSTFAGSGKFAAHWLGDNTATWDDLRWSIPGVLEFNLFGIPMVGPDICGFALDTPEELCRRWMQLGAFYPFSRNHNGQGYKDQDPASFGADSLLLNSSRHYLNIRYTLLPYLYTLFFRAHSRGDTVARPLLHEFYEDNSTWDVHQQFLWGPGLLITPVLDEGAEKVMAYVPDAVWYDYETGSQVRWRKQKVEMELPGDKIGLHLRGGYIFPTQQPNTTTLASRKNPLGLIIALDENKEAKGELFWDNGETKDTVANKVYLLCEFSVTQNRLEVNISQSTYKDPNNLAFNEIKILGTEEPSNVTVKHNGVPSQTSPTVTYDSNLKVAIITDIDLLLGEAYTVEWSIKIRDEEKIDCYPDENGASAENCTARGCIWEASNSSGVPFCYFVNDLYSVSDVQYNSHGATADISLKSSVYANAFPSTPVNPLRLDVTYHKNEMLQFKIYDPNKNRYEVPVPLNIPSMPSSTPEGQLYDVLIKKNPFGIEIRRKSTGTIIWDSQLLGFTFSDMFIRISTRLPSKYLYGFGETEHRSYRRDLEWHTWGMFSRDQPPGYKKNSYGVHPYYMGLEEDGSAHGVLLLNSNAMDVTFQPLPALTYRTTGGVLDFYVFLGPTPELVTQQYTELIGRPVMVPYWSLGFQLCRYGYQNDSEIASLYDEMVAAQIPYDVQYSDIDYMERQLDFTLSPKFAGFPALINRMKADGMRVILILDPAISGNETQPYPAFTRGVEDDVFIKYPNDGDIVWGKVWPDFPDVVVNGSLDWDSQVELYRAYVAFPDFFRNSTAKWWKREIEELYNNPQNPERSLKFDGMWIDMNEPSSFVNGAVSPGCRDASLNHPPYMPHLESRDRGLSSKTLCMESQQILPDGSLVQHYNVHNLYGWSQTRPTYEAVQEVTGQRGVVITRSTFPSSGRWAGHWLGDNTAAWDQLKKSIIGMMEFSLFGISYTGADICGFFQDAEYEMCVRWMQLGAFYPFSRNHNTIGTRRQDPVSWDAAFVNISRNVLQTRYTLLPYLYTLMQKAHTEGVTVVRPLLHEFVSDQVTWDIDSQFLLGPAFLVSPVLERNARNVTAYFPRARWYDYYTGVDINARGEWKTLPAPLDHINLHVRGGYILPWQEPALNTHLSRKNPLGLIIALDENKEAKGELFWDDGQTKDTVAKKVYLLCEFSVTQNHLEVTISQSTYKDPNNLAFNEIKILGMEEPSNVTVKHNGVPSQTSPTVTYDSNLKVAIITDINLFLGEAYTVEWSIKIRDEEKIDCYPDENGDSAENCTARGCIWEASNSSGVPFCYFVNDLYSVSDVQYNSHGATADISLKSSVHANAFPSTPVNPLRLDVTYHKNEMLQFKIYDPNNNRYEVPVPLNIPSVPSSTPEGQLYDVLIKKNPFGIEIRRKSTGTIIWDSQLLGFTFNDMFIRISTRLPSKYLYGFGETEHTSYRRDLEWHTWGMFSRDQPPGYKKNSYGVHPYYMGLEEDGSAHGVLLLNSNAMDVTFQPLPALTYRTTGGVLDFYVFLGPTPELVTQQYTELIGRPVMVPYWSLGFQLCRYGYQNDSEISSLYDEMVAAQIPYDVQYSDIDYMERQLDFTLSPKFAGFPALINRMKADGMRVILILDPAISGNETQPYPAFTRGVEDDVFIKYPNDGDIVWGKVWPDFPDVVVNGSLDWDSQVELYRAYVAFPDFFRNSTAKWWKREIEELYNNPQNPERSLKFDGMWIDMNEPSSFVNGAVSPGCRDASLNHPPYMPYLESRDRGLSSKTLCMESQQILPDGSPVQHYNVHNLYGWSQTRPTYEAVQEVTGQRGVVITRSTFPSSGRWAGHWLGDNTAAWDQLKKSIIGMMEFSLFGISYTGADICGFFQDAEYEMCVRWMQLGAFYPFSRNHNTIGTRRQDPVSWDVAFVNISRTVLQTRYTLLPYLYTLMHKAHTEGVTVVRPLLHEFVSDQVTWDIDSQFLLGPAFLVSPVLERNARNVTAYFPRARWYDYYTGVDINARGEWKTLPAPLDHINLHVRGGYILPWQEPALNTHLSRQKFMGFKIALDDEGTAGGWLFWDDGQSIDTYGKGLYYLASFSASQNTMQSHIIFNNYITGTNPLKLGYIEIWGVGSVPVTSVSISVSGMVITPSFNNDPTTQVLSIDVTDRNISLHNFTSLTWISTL
Sequence of Beta-glucosidase A (Caldicellulosiruptor saccharolyticus) (P10482 whole entry): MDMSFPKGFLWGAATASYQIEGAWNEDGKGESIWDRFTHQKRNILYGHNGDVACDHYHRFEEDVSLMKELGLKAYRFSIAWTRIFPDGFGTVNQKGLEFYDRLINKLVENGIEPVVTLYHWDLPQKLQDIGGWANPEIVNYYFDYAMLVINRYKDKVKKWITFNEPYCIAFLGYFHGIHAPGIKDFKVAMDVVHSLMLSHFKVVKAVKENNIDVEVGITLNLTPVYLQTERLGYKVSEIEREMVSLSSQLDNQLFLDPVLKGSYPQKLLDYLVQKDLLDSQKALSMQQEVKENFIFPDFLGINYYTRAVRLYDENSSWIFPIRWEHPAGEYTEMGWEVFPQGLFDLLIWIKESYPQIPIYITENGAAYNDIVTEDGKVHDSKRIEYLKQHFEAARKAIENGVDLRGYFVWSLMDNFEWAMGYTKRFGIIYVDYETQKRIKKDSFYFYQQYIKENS

Row | SMILES | Concentration [1] | Concentration [2] | Concentration [3] | Concentration [4] | Concentration [5] | Concentration [6] | Concentration [7] | Concentration [8] | Concentration [9] | Concentration [10]
1 | O[C@@H]1[C@@H](O)[C@@H](O)[C@H](O[C@H]2[C@@H](O)[C@H](O)[C@@H](O)[C@@H](O)[C@@H]2O)[C@@H](O)[C@H]1O | – | inactive | inactive | – | 600 µM | – | inactive | 800 µM | inactive | –
2 | O[C@H]1[C@H](O)[C@@H](O)[C@H](O)[C@@H](O)[C@H]1O | – | inactive | inactive | inactive | – | – | inactive | – | inactive | inactive
3 | O[C@H]1[C@H](O)[C@@H](O)C=C[C@H]1O | – | inactive | inactive | inactive | 600 µM | – | inactive | – | inactive | –

Results, then the compound that gave them:

Row | Concentration [1] | Concentration [2] | Concentration [3] | Concentration [4] | Concentration [5] | Concentration [6] | Concentration [7] | Concentration [8] | Concentration [9] | Concentration [10] | SMILES
4 | 275 µM | inactive | inactive | inactive | 250 µM | 1.5 mM | – | – | – | – | O[C@H]1[C@H](O)[C@@H](O[C@H]2C=C[C@@H](O)[C@@H](O)[C@@H]2O)C=C[C@H]1O
5 | 850 µM | inactive | inactive | – | 190 µM | – | – | 60 µM | inactive | – | O[C@H]1[C@H](O)[C@@H](O[C@H]2[C@H](O)[C@H](O)C=C[C@@H]2O)C=C[C@H]1O
